Key:
SCD1 = target: T1, SCD1 (Homo sapiens, UniProt O00767); assay: Growth inhibition of humanized yeast strain expressing SCD1 as sole desaturase; assay type: cell-based; conditions: for half-maximal inhibitory concentration (IC50): SCD1 humanized strain, FIG. 6
T1 construct: host or cells: S. cerevisiae ole1Δ strain (W303 pdr1Δ pdr3Δ background), plasmid pRS316 with TDH3 promoter and CYC1 terminator
T1 sequence (O00767 1-359): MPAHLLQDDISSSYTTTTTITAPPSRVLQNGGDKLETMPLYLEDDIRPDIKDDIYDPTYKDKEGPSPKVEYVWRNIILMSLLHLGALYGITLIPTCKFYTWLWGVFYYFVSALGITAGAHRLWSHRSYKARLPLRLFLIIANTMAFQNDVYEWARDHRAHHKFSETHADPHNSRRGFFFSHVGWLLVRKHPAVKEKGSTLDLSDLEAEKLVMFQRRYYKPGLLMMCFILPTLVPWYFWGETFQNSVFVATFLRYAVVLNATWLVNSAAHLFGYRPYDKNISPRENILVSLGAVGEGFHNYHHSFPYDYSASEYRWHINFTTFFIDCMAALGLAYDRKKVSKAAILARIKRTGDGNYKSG
Summary of the method: (§1)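 Yeast ole1Δ strain (W303 pdr1Δ pdr3Δ background) carrying plasmid-borne Ole1, SCD1 or SCD5 as sole desaturase was grown in uracil-lacking media, pre-cultured in raffinose for 6 h, then seeded in galactose medium with compound in DMSO. Growth was read as OD600 after 30° C. incubation: 24 h for Ole1, 40 h for SCD1/SCD5.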

SCD5 = target: T2, SCD5 (Homo sapiens, UniProt Q86SK9); assay: Growth inhibition of humanized yeast strain expressing SCD5 as sole desaturase; assay type: cell-based; conditions: for IC50 / SCD5 % Max Inhibition: humanized yeast strain expressing SCD5; for half-maximal inhibitory concentration (IC50): SCD5 humanized strain, FIG. 6
T2 construct: host or cells: S. cerevisiae ole1Δ strain (W303 pdr1Δ pdr3Δ background), plasmid pRS316 with TDH3 promoter and CYC1 terminator
T2 sequence (Q86SK9 1-330): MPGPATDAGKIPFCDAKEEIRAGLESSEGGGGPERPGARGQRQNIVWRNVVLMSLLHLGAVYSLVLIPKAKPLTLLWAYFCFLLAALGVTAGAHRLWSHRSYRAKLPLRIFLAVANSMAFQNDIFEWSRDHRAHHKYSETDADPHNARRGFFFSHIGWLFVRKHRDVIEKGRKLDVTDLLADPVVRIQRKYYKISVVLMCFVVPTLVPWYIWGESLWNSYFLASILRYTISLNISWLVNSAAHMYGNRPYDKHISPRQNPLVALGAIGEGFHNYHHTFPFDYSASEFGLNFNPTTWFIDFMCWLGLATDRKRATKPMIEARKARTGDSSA
Summary of the method: as §1

Ole1 = target: T3, Ole1 (Saccharomyces cerevisiae, UniProt P21147); assay: Growth inhibition of yeast strain expressing Ole1 as sole desaturase; assay type: cell-based; conditions: for IC50 / OLE1 % Max Inhibition: yeast strain expressing Ole1 as sole desaturase; for growth of yeast expressing OLE1 in presence of inhibitor: FIG. 6
T3 construct: expressed in transfected cells; host or cells: S. cerevisiae ole1Δ strain (W303 pdr1Δ pdr3Δ background), plasmid pRS316 with TDH3 promoter and CYC1 terminator
T3 sequence (P21147 1-510): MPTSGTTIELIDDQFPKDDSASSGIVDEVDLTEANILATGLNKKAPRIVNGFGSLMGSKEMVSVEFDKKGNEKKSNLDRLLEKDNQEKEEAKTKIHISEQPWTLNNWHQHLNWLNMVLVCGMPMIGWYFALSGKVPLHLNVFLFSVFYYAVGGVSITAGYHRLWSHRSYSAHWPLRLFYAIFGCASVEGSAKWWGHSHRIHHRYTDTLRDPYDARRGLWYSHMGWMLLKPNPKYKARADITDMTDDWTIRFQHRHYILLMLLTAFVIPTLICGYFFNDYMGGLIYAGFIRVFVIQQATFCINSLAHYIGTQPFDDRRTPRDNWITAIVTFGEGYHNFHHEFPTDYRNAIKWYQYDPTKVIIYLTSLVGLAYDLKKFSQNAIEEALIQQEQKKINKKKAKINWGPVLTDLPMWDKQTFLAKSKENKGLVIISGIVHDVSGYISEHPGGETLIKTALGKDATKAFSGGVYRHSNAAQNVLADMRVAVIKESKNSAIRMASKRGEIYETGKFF
Summary of the method: as §1

[1] = system: yeast strains expressing the human α-synuclein; assay: Yeast α-synuclein toxicity rescue assay (OD600 growth); conditions: 40 h
Excerpt: The induced expression of α-synuclein and ApoE4 confers cytotoxicity, thus enabling the identification of compounds that can restore cell viability. This instantaneous/synchronous induction of α-synuclein and ApoE4 can be achieved due to the following expression control. In glucose-containing media, gene expression from the GAL1 promoter is ‘off’ and actively repressed by additional epigenetic factors. In raffinose, expression is ‘off’, but the promoter not actively repressed. Upon transition to galactose-containing media, the promoter is instantaneously turned ‘on’ to achieve robust and synchronous induction of α-synuclein or ApoE4 expression. This highly regulated induction provides a robust window for the determination of both efficacy (amplitude of protective effect) and potency (concentration of protective effect) of cytoprotective compounds.
Re-suspended compound stocks were subsequently arrayed into 384 well compound plates using automated pipetting. All other wells not receiving stock compound were filled with 10 μL of 100% DMSO using an automated plate filler (Multidrop Combi). An 11 point, 2-fold serial dilution was then performed using the robotic platform. Compound assay plates were covered with foil and stored at −20° C. until use.
Each strain was handled according to standard protocols and cultured in media composed of CSM (complete synthetic media), YNB (yeast nitrogenous base), and a 2% (w/v) carbon source (either glucose, raffinose, or galactose).
In a standard yeast assay, a single-use aliquot of cells was thawed on ice and diluted into CSM/glucose (5 mL). Cultures were grown for 8 hours at 30° C. This pre-growth enables the yeast to exit the thaw and begin to grow without expressing aSyn or ApoE4. After 8 hours, cell density (OD600) was determined and cultures diluted to an OD600 of 0.01 in CSM/raffinose for an overnight culture phase at 30° C. During this period, the active glucose repression of the GAL1 promoter was relieved; however, expression of the α-Syn/ApoE4 genes were not yet induced. After ˜16 hours of growth, cultures attain an OD600 of 0.4-0.8 and were ready to apply to assay plates containing compound.
Compound profiling assays were executed in clear-bottom 384 well plates. First, compound plates were thawed at room temperature for 45′, centrifuged at 1,000×g for 1 minute, and the foil removed. Clear 384 well assay plates were then filled with 15 μL of CSM/galactose. […] The pin tool was washed iteratively with both 50% DMSO and 100% ethanol between each assay plate. After delivering compound to each assay plate, the overnight CSM/raffinose aSyn or ApoE4 cultures were added at a 2X cell density (0.04 for aSyn and 0.08 for ApoE4) in CSM/galactose to achieve a final assay OD600 of 0.02 and 0.04 for aSyn and ApoE, respectively. The cultures (15 μL per well) were then dispensed to the compound -containing 384 well assay plates using an automated plate filler. Plates were incubated in a humidified 30° C. incubator for 40 or 24 hours for aSyn and ApoE4, respectively. The ODsoo of each assay plate was then read with a microplate reader (e.g., Perkin Elmer Envision).
The efficacy and potency of compounds were calculated according to the following. Raw data (OD600 values) were first background corrected to account for OD600 contributed by the plate and media itself. The efficacy (percent above DMSO, herein referred to as “Emax”) was calculated according to the equation: (Experimental well−DMSO control well)/(DMSO control well)*100. […] Normalized dose-response data was fit with a logistic regression curve using Spotfire (TIBCO), or similar curve-fitting software package. EC50 values were then reported along with EMax to provide both efficacy and potency measures for each analog and enable further compound design.

[2] = humanized yeast strain expressing SCD1

Structure (SMILES)	SCD1 % Max Inhibition (SCD1; [2]) [%]	IC50 (SCD5) [µM]	SCD5 % Max Inhibition (SCD5) [%]	IC50 (Ole1) [µM]	OLE1 % Max Inhibition (Ole1) [%]	IC50 (SCD1; [2]) [µM]	half-maximal inhibitory concentration (IC50) (SCD1)	half-maximal inhibitory concentration (IC50) (SCD5)	growth of yeast expressing OLE1 in presence of inhibitor (Ole1)	EC50 ([1]; read-out: α-Syn EC50) [µM]	Emax ([1]; read-out: α-Syn Emax) [%]
O=C(CNC(=O)c1ccccc1)NCCc1nc(-c2ccccc2)no1 [Compound 485]	62.60	30	65.42	> 45	75.19						
COc1ccc(-c2noc(CCNC(=O)COc3cc(O)c4c(c3)OC(C)(C)CC4=O)n2)cc1OC [Compound 486]	76.95	> 45	72.76	> 45	103.51						
CC1(C)CC(=O)c2c(O)cc(OCC(=O)NCCc3nc(-c4ccccc4)no3)cc2O1 [Compound 487]	83.76	40.2	70.73	> 45	103.20						
COc1ccc(-c2noc(C3CCNCC3)n2)cc1OC [Compound 488]	75.87	> 45	72.82	> 45	90.53						
COc1cccc(-c2noc(C3CC(=O)N(c4ccc(C)c(C)c4)C3)n2)c1 (centres unmarked) [Compound 489]	68.84	41.1	61.11	> 45	94.30						
COc1cccc(-c2noc(C3CC(=O)N(c4ccc(C)c(C)c4)C3)n2)c1 (centres unmarked) [Compound 490]	63.84	35.1	50.39	> 45	96.38	38.8					
CCN1C(=O)COc2ccc(-c3noc(C4(c5ccc(OC)cc5)CC4)n3)cc21 [Compound 491]	118.81	> 45	83.61	> 45	107.15						
CCN(Cc1nc(-c2ccc(OC)c(OC)c2)no1)C(=O)Cc1ccccc1 [Compound 492]	83.92	> 45	75.64	> 45	106.45						
CCNCc1nc(-c2ccc3c(c2)N(CC)C(=O)CO3)no1 [Compound 493]	68.84	30.2	60.28	> 45	91.16						
CCN(Cc1nc(-c2ccc3c(c2)N(CC)C(=O)CO3)no1)C(=O)Cc1cccc2ccccc12 [Compound 494]	79.67	> 45	73.76	> 45	92.28						
CNC(=O)c1cccc(NC(=O)N2CCC(Oc3ccccc3Cl)CC2)c1 [Compound A939572, reference compound]							low nanomolar	low nanomolar	resistant		
Cc1nnc(-c2ccc(N3CCC(Oc4ccccc4C(F)(F)F)CC3)nn2)s1 [MF-438, reference compound]							low nanomolar	low nanomolar	resistant		
CCOc1ccc(-c2noc(C3CCN(C(=O)CNC(=O)c4ccccc4)CC3)n2)cc1Cl [compound 87]										1.93	579
